Data taken from ChEMBL document CHEMBL1201862, “PubChem BioAssay data set” (2004).
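Following 48 hours of exposure in 96-well plates, responses at five concentrations were used to interpolate endpoints linearly. GI50 = concentration required for 50% inhibition of growth.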 Calls of active or inactive are those of the source. Rule as the data show it: active = GI50 up to about 1.1 µM and inactive = higher.

How the values were obtained:
Assay in all cases: DTP human tumour cell line panel, 48 h
[1] = system: 786-0
[2] = system: A498
[3] = system: A549
[4] = system: ACHN
[5] = system: CCRF-CEM
[6] = system: COLO 205
[7] = system: DU-145
[8] = system: EKVX
[9] = system: HCT-116
[10] = system: HCT-15
[11] = system: HL-60
[12] = system: HOP-62
[13] = system: HOP-92
[14] = system: Hs-578T
[15] = system: IGROV-1
[16] = system: K562
[17] = system: KM12
[18] = system: LOX IMVI
[19] = system: M14
[20] = system: MCF7
[21] = system: MDA-MB-231
[22] = system: MDA-MB-435
[23] = system: MDA-N
[24] = system: MOLT-4
[25] = system: Malme-3M
[26] = system: NCI-H226
[27] = system: NCI-H23
[28] = system: NCI-H522
[29] = system: NCI/ADR-RES
[30] = system: OVCAR-3
[31] = system: OVCAR-4
[32] = system: OVCAR-5
[33] = system: OVCAR-8
[34] = system: PC-3
[35] = system: RPMI-8226
[36] = system: SF-268
[37] = system: SF-295
[38] = system: SK-MEL-28
[39] = system: SK-MEL-2
[40] = system: SK-MEL-5
[41] = system: SK-OV-3
[42] = system: SN12C
[43] = system: SNB-19
[44] = system: SNB-75
[45] = system: SR
[46] = system: SW-620
[47] = system: TK-10
[48] = system: U-251
[49] = system: UACC-62
[50] = system: UO-31
[51] = system: CAKI-1
[52] = system: HCC 2998
[53] = system: HT-29
[54] = system: NCI-H460
[55] = system: RXF 393
[56] = system: SF-539
[57] = system: T47D
[58] = system: UACC-257

SMILES: CSC1=N/C(=C\c2ccc(C)cc2)C(=O)N1CN1CCOCC1
- GI50 [1]: 44.7 µM (inactive)
- GI50 [2]: 98.2 µM (inactive)
- GI50 [3]: 92.3 µM (inactive)
- GI50 [4]: 35.4 µM (inactive)
- GI50 [5]: 41.4 µM (inactive)
- GI50 [6]: 42.7 µM (inactive)
- GI50 [7]: 76 µM (inactive)
- GI50 [8]: 47.4 µM (inactive)
- GI50 [9]: 35.7 µM (inactive)
- GI50 [10]: 34.1 µM
- GI50 [11]: > 100 µM (inactive)
- GI50 [12]: 89.1 µM (inactive)
- GI50 [13]: > 100 µM (inactive)
- GI50 [14]: 84.9 µM (inactive)
- GI50 [15]: 28.2 µM (inactive)
- GI50 [16]: 34.3 µM (inactive)
- GI50 [17]: 91.8 µM (inactive)
- GI50 [18]: 39.9 µM (inactive)
- GI50 [19]: 95.1 µM (inactive)
- GI50 [20]: 31.2 µM (inactive)
- GI50 [21]: > 100 µM (inactive)
- GI50 [22]: 99.8 µM (inactive)
- GI50 [23]: > 100 µM (inactive)
- GI50 [24]: 28.9 µM (inactive)
- GI50 [25]: > 100 µM (inactive)
- GI50 [26]: 31.3 µM (inactive)
- GI50 [27]: 92.7 µM (inactive)
- GI50 [28]: 97.5 µM (inactive)
- GI50 [29]: 19.5 µM (inactive)
- GI50 [30]: > 100 µM (inactive)
- GI50 [31]: 0.622 µM (active)
- GI50 [32]: > 100 µM (inactive)
- GI50 [33]: 45.6 µM (inactive)
- GI50 [34]: 58.9 µM (inactive)
- GI50 [35]: 23.7 µM (inactive)
- GI50 [36]: 47.6 µM (inactive)
- GI50 [37]: > 100 µM (inactive)
- GI50 [38]: > 10 µM (inactive)
- GI50 [39]: > 100 µM (inactive)
- GI50 [40]: 55.8 µM (inactive)
- GI50 [41]: > 100 µM (inactive)
- GI50 [42]: > 100 µM (inactive)
- GI50 [43]: 37.5 µM (inactive)
- GI50 [44]: 46.3 µM (inactive)
- GI50 [45]: 69.3 µM (inactive)
- GI50 [46]: 40 µM (inactive)
- GI50 [47]: > 100 µM (inactive)
- GI50 [48]: 40.8 µM (inactive)
- GI50 [49]: 93.3 µM (inactive)
- GI50 [50]: 20.2 µM (inactive)

SMILES: Cc1nc2c(sc3nc4c(cc32)CCC4)c(=O)o1
- GI50 [1]: > 72.4 µM (inactive)
- GI50 [2]: > 100 µM (inactive)
- GI50 [3]: > 50.5 µM (inactive)
- GI50 [4]: > 66.7 µM (inactive)
- GI50 [51]: > 100 µM (inactive)
- GI50 [5]: 40.8 µM (inactive)
- GI50 [6]: 54.6 µM (inactive)
- GI50 [7]: > 100 µM (inactive)
- GI50 [8]: > 100 µM (inactive)
- GI50 [52]: 28.6 µM (inactive)
- GI50 [9]: 32.8 µM (inactive)
- GI50 [10]: 34.4 µM
- GI50 [11]: 49.9 µM (inactive)
- GI50 [12]: > 100 µM (inactive)
- GI50 [13]: > 50.1 µM (inactive)
- GI50 [53]: 36.7 µM (inactive)
- GI50 [14]: 45.9 µM (inactive)
- GI50 [15]: 20.6 µM (inactive)
- GI50 [16]: 57.9 µM (inactive)
- GI50 [17]: > 87.1 µM (inactive)
- GI50 [18]: 41.4 µM (inactive)
- GI50 [19]: 64.3 µM (inactive)
- GI50 [20]: > 81.3 µM (inactive)
- GI50 [21]: > 92.5 µM (inactive)
- GI50 [22]: 36.6 µM (inactive)
- GI50 [23]: 38.7 µM (inactive)
- GI50 [24]: 41.9 µM (inactive)
- GI50 [26]: > 96.2 µM (inactive)
- GI50 [27]: 67.9 µM (inactive)
- GI50 [54]: > 59.8 µM (inactive)
- GI50 [28]: 31 µM (inactive)
- GI50 [29]: > 56.1 µM (inactive)
- GI50 [30]: 37.8 µM (inactive)
- GI50 [31]: 32.4 µM (inactive)
- GI50 [32]: > 95.1 µM (inactive)
- GI50 [33]: 36.1 µM (inactive)
- GI50 [34]: > 100 µM (inactive)
- GI50 [35]: 48.9 µM (inactive)
- GI50 [55]: > 100 µM (inactive)
- GI50 [36]: 49.7 µM (inactive)
- GI50 [37]: > 100 µM (inactive)
- GI50 [56]: 40.5 µM (inactive)
- GI50 [38]: 46.7 µM (inactive)
- GI50 [39]: > 100 µM (inactive)
- GI50 [40]: 37.5 µM (inactive)
- GI50 [41]: > 100 µM (inactive)
- GI50 [42]: 98.2 µM (inactive)
- GI50 [43]: > 53.2 µM (inactive)
- GI50 [44]: > 68.4 µM (inactive)
- GI50 [45]: 39.3 µM (inactive)
- GI50 [46]: > 59.7 µM (inactive)
- GI50 [57]: > 78 µM (inactive)
- GI50 [47]: > 64.6 µM (inactive)
- GI50 [48]: > 83.2 µM (inactive)
- GI50 [58]: 89.1 µM (inactive)
- GI50 [49]: > 100 µM (inactive)
- GI50 [50]: > 56.1 µM (inactive)
